Experimental data from PMC2644050 (The Journal of pharmacology and experimental therapeutics, 2008).

Key:
[1] = target: T1, human muscarinic M4 receptor (CHO M4) (Homo sapiens, UniProt P08173); test: inhibition of forskolin-stimulated cAMP accumulation, [3H]adenine pre-labeling; assay type: cell-based; conditions: CHO M4 cells, Gi pathway, 10 μM forskolin; agonist
T1 sequence (P08173 1-479): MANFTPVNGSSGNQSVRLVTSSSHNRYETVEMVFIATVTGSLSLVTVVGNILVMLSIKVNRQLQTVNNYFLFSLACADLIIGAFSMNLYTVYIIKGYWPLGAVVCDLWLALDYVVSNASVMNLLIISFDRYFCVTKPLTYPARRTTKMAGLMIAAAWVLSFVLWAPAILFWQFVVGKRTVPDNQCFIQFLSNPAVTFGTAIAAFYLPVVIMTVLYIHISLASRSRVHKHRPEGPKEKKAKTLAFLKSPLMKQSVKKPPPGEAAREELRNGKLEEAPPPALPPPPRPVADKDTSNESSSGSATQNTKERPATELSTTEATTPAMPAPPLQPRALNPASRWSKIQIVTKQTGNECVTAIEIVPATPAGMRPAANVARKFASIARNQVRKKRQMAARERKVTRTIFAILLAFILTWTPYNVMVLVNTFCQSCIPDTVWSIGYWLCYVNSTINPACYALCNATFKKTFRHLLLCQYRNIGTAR

[2] = target: T2, human muscarinic M1 receptor (CHO M1) (Homo sapiens, UniProt P11229); test: stimulation of phosphoinositide hydrolysis, [3H]inositol pre-labeling; assay type: cell-based
T2 sequence (P11229 1-460): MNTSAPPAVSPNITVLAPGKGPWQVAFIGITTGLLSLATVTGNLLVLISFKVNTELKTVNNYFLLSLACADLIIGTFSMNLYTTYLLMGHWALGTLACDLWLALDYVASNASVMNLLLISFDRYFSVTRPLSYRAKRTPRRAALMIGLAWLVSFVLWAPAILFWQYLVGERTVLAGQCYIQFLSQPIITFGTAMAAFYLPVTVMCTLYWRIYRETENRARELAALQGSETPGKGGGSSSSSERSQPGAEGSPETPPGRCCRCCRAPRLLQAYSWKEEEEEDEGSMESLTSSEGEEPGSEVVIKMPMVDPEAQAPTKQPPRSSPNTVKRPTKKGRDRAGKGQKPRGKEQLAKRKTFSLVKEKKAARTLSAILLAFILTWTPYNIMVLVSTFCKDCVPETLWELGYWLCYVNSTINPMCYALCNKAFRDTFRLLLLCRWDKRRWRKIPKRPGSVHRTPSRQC

C[N+](C)(C)CC#CCN1CCCC1=O [oxotremorine-M]
EC50 (μM) [1]: 0.030 (−7.52 ± .07) μM | EC50 (μM) [2]: 0.041 (−7.39 ± .05) μM
